Experiments:
Aβtotal [1] = assay: Screening for γ-secretase-modulating activity, Method 1: Aβtotal sandwich ELISA in supernatant of SKNBE2 cells carrying APP 695 wild type (Tables 12a, 12b); assay type: cell-based
Summary of the method: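 SKNBE2 cells expressing wild-type APP 695 were plated a day ahead, then exposed to compound in Ultraculture with 1% glutamine for 18 hours. Supernatant Aβtotal captured on 6E10 overnight at 4° C, detected with biotinylated 4G8 and streptavidin-peroxidase with a fluorogenic substrate. IC50 from 4-parameter dose-response fits.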

Aβtotal [2] = assay: Demonstration of in vivo efficacy: Aβtotal lowering in brain after single oral dose (Table 13); details: mouse brain soluble fraction, mean, compared to untreated animals
Description: (§1) To determine whether acute administration of an Aβ42 lowering agent would reduce Aβ42 levels in vivo, non-transgenic rodents, e.g. mice or rats were used. Alternatively, two to three month old Tg2576 mice expressing APP695 containing the “Swedish” variant can be used or a transgenic mouse model developed by Dr. Fred Van Leuven (K. U. Leuven, Belgium) and co-workers, with neuron-specific expression of a clinical mutant of the human amyloid precursor protein [V717I] (Moechars et al., 1999 J. Biol. Chem. 274, 6483). Young transgenic mice have high levels of Aβ in the brain but no detectable Aβ deposition. At approximately 6-8 months of age, the transgenic mice start to display spontaneous, progressive accumulation of β-amyloid (Aβ) in the brain, eventually resulting in amyloid plaques within the subiculum, hippocampus and cortex. Animals treated with the Aβ42 lowering agent were examined and compared to those untreated or treated with vehicle and brain levels of soluble Aβ42 and total Aβ would be quantitated by standard techniques, for example, using ELISA. Treatment periods varied from hours to days and were adjusted based on the results of the Aβ42 lowering once a time course of onset of effect could be established.
(§2) A typical protocol for measuring Aβ42 lowering in vivo is shown but it is only one of many variations that could be used to optimize the levels of detectable Aβ. For example, Aβ42 lowering compounds were formulated in 20% of Captisol® (a sulfobutyl ether of β-cyclodextrin) in water or 20% hydroxypropyl β cyclodextrin. The Aβ42 lowering agents were administered as a single oral dose or by any acceptable route of administration to overnight fasted animals. After four hours, the animals were sacrificed and Aβ42 levels were analysed.
(§3) Blood was collected by decapitation and exsanguinations in EDTA-treated collection tubes. Blood was centrifuged at 1900 g for 10 minutes at 4° C. and the plasma recovered and flash frozen for later analysis. The brain was removed from the cranium and hindbrain. The cerebellum was removed and the left and right hemisphere were separated. The left hemisphere was stored at −18° C. for quantitative analysis of test compound levels. The right hemisphere was rinsed with phosphate-buffered saline (PBS) buffer and immediately frozen on dry ice and stored at −80° C. until homogenization for biochemical assays.
Mouse brains were resuspended in 10 volumes of 0.4% DEA (diethylamine)/50 mM NaCl pH 10 (for non-transgenic animals) or 0.1% 3-[3-cholamidopropyl)-dimethyl-ammonio]-1-propanesulfonate (CHAPS) in tris buffered saline (TBS) (for transgenic animals) containing protease inhibitors (Roche-11873580001 or 04693159001) per gram of tissue, e.g. for 0.158 g brain, add 1.58 ml of 0.4% DEA. All samples were sonicated for 30 seconds on ice at 20% power output (pulse mode). Homogenates were centrifuged at 221.300×g for 50 min. The resulting high speed supernatants were then transferred to fresh tubes and were optionally further purified before the next step. A portion of the supernatant was neutralized with 10% 0.5 M Tris-HCl and this was used to quantify Aβtotal. […]
In this model at least 20% Aβ42 lowering compared to untreated animals would be advantageous.

Aβ42 [3] = assay: Screening for γ-secretase-modulating activity, Method 1: Aβ42 sandwich ELISA in supernatant of SKNBE2 cells carrying APP 695 wild type (Tables 12a, 12b); assay type: cell-based
Summary of the method: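 SKNBE2 cells expressing wild-type APP695 were treated with compound for 18 h, and secreted Aβ42 in the medium was quantified by sandwich ELISA (C-terminal-selective capture, biotinylated 3D6 detection, TMB read at 450 nm). IC50 came from 4-parameter fits of % inhibition or % of untreated control; toxicity was checked by WST-1.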

Aβ42 [4] = assay: Demonstration of in vivo efficacy: Aβ42 lowering in brain after single oral dose (Table 13); details: mouse brain soluble fraction, ELISA, mean, compared to untreated animals
Description: as §1, §2, §3
Mouse brains were resuspended in 10 volumes of 0.4% DEA (diethylamine)/50 mM NaCl pH 10 (for non-transgenic animals) or 0.1% 3-[3-cholamidopropyl)-dimethyl-ammonio]-1-propanesulfonate (CHAPS) in tris buffered saline (TBS) (for transgenic animals) containing protease inhibitors (Roche-11873580001 or 04693159001) per gram of tissue, e.g. for 0.158 g brain, add 1.58 ml of 0.4% DEA. All samples were sonicated for 30 seconds on ice at 20% power output (pulse mode). Homogenates were centrifuged at 221.300×g for 50 min. The resulting high speed supernatants were then transferred to fresh tubes and were optionally further purified before the next step. A portion of the supernatant was neutralized with 10% 0.5 M Tris-HCl and this was used to quantify Aβtotal.
The obtained supernatants were purified with Water Oasis HLB reverse phase columns (Waters Corp., Milford, Mass.) to remove non-specific immunoreactive material from the brain lysates prior subsequent Aβ detection. Using a vacuum manifold, all solutions were passed through the columns at a rate of approximately 1 ml per minute, so the vacuum pressure was adjusted accordingly throughout the procedure. Columns were preconditioned with 1 ml of 100% MeOH, before equilibration with 1 ml of H2O. Non-neutralized brain lysates were loaded onto the columns. The loaded samples were then washed twice with the first wash performed with 1 ml of 5% MeOH, and the second wash with 1 ml of 30% MeOH. Finally, the Aβ was eluted from the columns and into 100×30 mm glass tubes, with a solution of 90% MeOH with 2% NH4OH. […]

[5] = Homo sapiens, Method 1, Table 12a, SKNBE2 cells carrying APP 695 wild type, compounds 18 hours, ELISA, curve top and bottom fixed to 100 and 0, hill slope 1
[6] = Homo sapiens, Table 12b, Method 1, SKNBE2 cells carrying APP 695 wild type, cell supernatant ELISA, averaged IC50 values
[7] = Homo sapiens, Table 12b, Method 1, SKNBE2 cells carrying APP 695 wild type, cell supernatant ELISA, averaged IC50 values, percentage of control vs log concentration
[8] = Method 1, Table 12a, SKNBE2 cells carrying APP 695 wild type, compounds 18 hours, ELISA, curve top and bottom fixed to 100 and 0, hill slope 1
[9] = Table 12b, Method 1, SKNBE2 cells carrying APP 695 wild type, cell supernatant ELISA, averaged IC50 values
[10] = Table 12b, Method 1, SKNBE2 cells carrying APP 695 wild type, cell supernatant ELISA, averaged IC50 values, percentage of control vs log concentration

SMILES | IC50 (Aβtotal [1]; [5]) | IC50 (Aβtotal [1]; [6]) | Aβtotal (% Ctrl)_Mean (Aβtotal [2]) | IC50 (Aβ42 [3]; [5]) | IC50 (Aβ42 [3]; [7]) | Aβ42 (% Ctrl)_Mean (Aβ42 [4]) | IC50 (Aβtotal [1]; [8]) | IC50 (Aβtotal [1]; [9]) | IC50 (Aβ42 [3]; [8]) | IC50 (Aβ42 [3]; [10])
COc1cc(Nc2cccn3cc(Cc4ccc(F)cc4)nc23)ccc1-n1cnc(C)c1 [Compound 3] | > 1 µM | 12.6 µM | 95 % Ctrl | 30 nM | 148 nM | 56 % Ctrl |  |  |  | 
COc1cccc(-c2nc3c(Nc4ccc(-n5cncn5)c(OC)c4)cccn3c2C)c1 [Compound 7] | > 1 µM | > 3.02 µM | 105 % Ctrl | 37 nM | 36 nM | 68 % Ctrl |  |  |  | 
COc1cc(Nc2cccn3c(-c4ccc(F)cc4)cnc23)ccc1-n1cnc(C)c1 [Compound 8] | > 20 µM | > 20 µM | 96 % Ctrl | 541 nM | 562 nM | 88 % Ctrl |  |  |  | 
CCCc1nc2c(Nc3ccc(-n4cnc(C)c4)c(OC)c3)cccn2c1CC [Compound 10] |  |  | 104 % Ctrl |  |  | 67 % Ctrl | > 3 µM | > 3.02 µM | 54 nM | 51 nM
COc1cc(Nc2cccn3c(C)c(-c4ccccc4F)nc23)ccc1-n1cnc(C)c1 [Compound 18] | > 10 µM | > 10 µM | 101 % Ctrl | 25 nM | 25 nM | 73 % Ctrl |  |  |  | 
COc1cc(Nc2cccn3c(C)c(-c4ccc(F)cc4F)nc23)ccc1-n1cnc(C)c1 [Compound 26] | > 3 µM | > 3.02 µM | 94 % Ctrl | 11 nM | 11 nM | 75 % Ctrl |  |  |  | 
COc1ccccc1-c1cn2cccc(Nc3ccc(-n4cnc(C)c4)c(OC)c3)c2n1 [Compound 32] | > 5 µM | > 5.01 µM | 113 % Ctrl | 114 nM | 105 nM | 81 % Ctrl |  |  |  | 
COc1cccc(-c2nc3c(Nc4ccc(-n5cnc(C)c5)c(OC)c4)cccn3c2C)c1 [Compound 34] | > 3 µM | > 3.02 µM | 100 % Ctrl | 9 nM | 9 nM | 63 % Ctrl |  |  |  | 
CCN(CC)c1ccc(-c2cn3cccc(Nc4ccc(-n5cnc(C)c5)c(OC)c4)c3n2)cc1 [Compound 39] | > 3 µM | > 3.02 µM | 108 % Ctrl | 75 nM | 68 nM | 82 % Ctrl |  |  |  | 
COc1cc(Nc2cccn3cc(-c4ccc(N5CCOCC5)cc4)nc23)ccc1-n1cnc(C)c1 [Compound 40] | > 3 µM | > 3.02 µM | 99 % Ctrl | 62 nM | 56 nM | 80 % Ctrl |  |  |  | 
COc1cc(Nc2cccn3cc(-c4ccc(F)cc4C)nc23)ccc1-n1cnc(C)c1 [Compound 52] | > 3 µM | > 3.02 µM | 91 % Ctrl | 10 nM | 10 nM | 66 % Ctrl |  |  |  | 
Cc1ncn(-c2ccc(Nc3cccn4cc(-c5cc(C(F)(F)F)ccc5C)nc34)cc2F)n1 [Compound 74] |  | > 3.02 µM | 102 % Ctrl |  | 123 nM | 95 % Ctrl |  |  |  | 
Cc1ncn(-c2ccc(Nc3cccn4c(C)c(-c5ccccc5Cl)nc34)nc2)n1 [Compound 83] |  |  | 104 % Ctrl |  |  | 89 % Ctrl |  | > 10 µM |  | 355 nM
Cc1ncn(-c2ccc(Nc3cccn4cc(-c5ccccc5C)nc34)cn2)n1 [Compound 86] |  |  | 96 % Ctrl |  |  | 86 % Ctrl |  | > 10 µM |  | 117 nM
Cc1ncn(-c2ccc(Nc3cccn4c(C)c(-c5ccccc5Cl)nc34)cn2)n1 [Compound 87] |  |  | 101 % Ctrl |  |  | 86 % Ctrl |  | > 10 µM |  | 25 nM
COc1ccc(C)c(-c2cn3cccc(Nc4ccc(-n5cnc(C)n5)c(F)c4)c3n2)c1 [Compound 94] |  | > 3.02 µM | 101 % Ctrl |  | 115 nM | 96 % Ctrl |  |  |  | 
Cc1ncn(-c2ccc(Nc3cccn4cc(-c5ccc(F)cc5C)nc34)cn2)n1 [Compound 98] |  |  | 97 % Ctrl |  |  | 84 % Ctrl |  | > 3.02 µM |  | 32 nM
